The source of these data is US20040067894A1, “Preparation having antioxidant properties” (Merck Patent GmbH, priority 2002, published 2004).

A short description of the experiment: DPPH assay (free-radical scavenging, antioxidant activity). The format is biochemical. The settings on record: for AE (×10^−3): anti-free-radical efficiency, obtained from EC50 and TEC50; for TEC50: reaction time necessary to achieve the EC50 value. As for the experimental part:
2,2-Diphenyl-1-picrylhydrazyl is a free radical which is stable in solution. The unpaired electron results in a strong absorption band at 515 nm, and the solution has a dark violet color. In the presence of a free-radical scavenger, the electron is paired, the absorption disappears, and the decoloration proceeds stoichiometrically taking into account the electrons taken up. The absorbance is measured in a photometer. The anti-free-radical property of the substance to be tested is determined by measuring the concentration at which 50% of the 2,2-diphenyl-1-picrylhydrazyl employed has reacted with the free-radical scavenger. This concentration is expressed as EC50, a value which can be considered to be a property of the substance under the given measurement conditions. The substance investigated is compared with a standard (for example tocopherol). The EC50 value here is a measure of the capacity of the respective compound to scavenge free radicals. The lower the EC50 value, the higher the capacity to scavenge free radicals.
A further important aspect for the action of the antioxidants is the time in which this EC50 value is reached. This time, measured in minutes, gives the TEC50 value, which allows a conclusion to be drawn on the rate at which these antioxidants scavenge free radicals.
The antioxidant activity of the compounds according to the invention is determined compared with the activity of quercetin (3,5,7,3′,4′-pentahydroxyflavone) and other conventional antioxidants. The antioxidant activity here is taken to mean the ability to function as hydrogen or electron donor and thus to be able to scavenge free radicals. DPPH assay is used for the determination.
A stock solution of 2,2-diphenyl-1-picrylhydrazyl (DPPH) in ethanol is prepared (0.025 g/l of DPPH-free radicals). Aliquots of this solution are mixed with various concentrations of the compound to be tested. The absorbance is in each case measured at 515 nm, 25° C. and 1 cm.
The lower this value, the higher the corresponding antioxidant activity.
The reaction time necessary to achieve this value is indicated in the value TEC50 (in minutes).
The anti-free-radical efficiency (AE) is obtained from this in accordance with the following relationship: [formula]
A higher AE value here indicates a higher activity against free radicals.
On the technique in general: DPPH is a stable violet radical that fades when it is reduced.

As to Tocopherol, the “AE (×10^−3)” value is recorded as 64.1 ×10^−3 and the TEC50 was under 60 min.
Taken in the same sequence, the figures for `O=C1O[C@H]([C@@H](O)CO)C(O)=C1O` [Ascorbic acid] were 61.72 ×10^−3 and under 60 min.
Taken in the same sequence, the figures for `O=c1cc(-c2ccc(O)c(O)c2)oc2c(O)c(O)ccc12` [7,8,3′,4′-Tetrahydroxyflavone, 7,8,3′,4′-tetrahydroxyflavone] were 18.52 ×10^−3 and 600 min.
Regarding `O=C1c2c(O)cc(O)cc2OC(c2ccc(O)c(O)c2)C1O` (stereo not shown) [3,5,7,3′,4′-Pentahydroxyflavanone], the “AE (×10^−3)” value is listed as 5.53 ×10^−3 and the TEC50 came out at 1200 min.
`O=c1c(O)c(-c2ccc(O)c(O)c2)oc2cc(O)cc(O)c12` [3,5,7,3′,4′-pentahydroxyflavone]: the “AE (×10^−3)” value is 18.72 ×10^−3 and the TEC50 came to 600 min.
The like results for `COc1cc(/C=C/C(=O)O)ccc1O` [Ferulic acid] were, in that order, 4.9 ×10^−3 and 600 min.
Take `O=c1cc(-c2ccccc2)oc2cc(O)c(O)c(O)c12` [5,6,7-Trihydroxyflavone/bacalein, 5,6,7-trihydroxyflavone]: the “AE (×10^−3)” value is recorded as 27.78 ×10^−3 and the TEC50 stood at 360 min.
On to `O=c1cc(-c2ccc(O)c(O)c2)oc2ccc(O)cc12` [6,3′,4′-Trihydroxyflavone, 6,3′,4′-trihydroxyflavone], for which the “AE (×10^−3)” value is recorded as 46.30 ×10^−3 and the TEC50 was 180 min.
